Laboratory results taken from publication PMC7937321 (Genes and Environment, 2021).

Assays:
[1] = system: rodent; settings: cited from earlier work
[2] = system: L5178Y mouse lymphoma cells; settings: cited from earlier work
[3] = system: human lymphoblastoid TK6 cells, thymidine kinase gene; assay: TK gene mutation assay (TK6 assay, OECD TG490)
Description: (§1) In principle, this collaborative study conducted the treatment of test substances, the dose finding, and the main test of TK6 assays, according to the OECD Guideline TG490 [17]. […] Briefly, test substances were dissolved in an appropriate solvent (DMSO or ethanol) and then serially diluted to prepare final concentrations. […] The 4 h and 24 h treatments were conducted by shaking and static exposures, respectively. After treatment with test substances, cells were centrifuged (1000 rpm, 5 min), supernatants were removed, and cells were washed with a serum-free medium or Hank’s Balanced Salt Solution. After centrifugation (1000 rpm, 5 min) to remove the supernatant, cells (2 × 10^7 cells) were dispersed in an RPMI medium containing 10% serum, and cell concentration was measured. Treated cells were cultured at 37 °C with 5% CO2 condition and used for TK6 assays. At that time, to calculate the cloning efficiency (CE) (Eq. 1), the cells were cultured in a 96-well microplate at a concentration of about 1.6 cells/well for 2 weeks.
(§2) The TK6 assay is conducted between 20 and 10% RS0 as a maximum dose if cytotoxicity is observed. If no precipitate or limiting cytotoxicity was observed, the maximum dose was the lowest concentration among 10 mM, 2 mg/mL, or 2 μL/mL of the test substance. When the main TK6 assay was difficult to conduct under the condition of RS0 values from 20 to 10%, the test was conducted between 20 and 10% relative total growth (RTG), described later, as a maximum dose.
(§3) On the third day of culture, CE3 plates for determining plating efficiency and mutant frequency (MF) plates for mutation detection were prepared. CE3 plates were seeded in 96-well microplates at a concentration of about 1.6 cells/well. The MF plates were seeded in 96-well microplates at 40,000 cells/well in the presence of 3 μg/mL of trifluorothymidine (Sigma Aldrich).
(§4) Mutant colonies in MF plates were calculated using Eq. 7 using the Poisson distribution. EW was the number of wells without colonies, and TW was the total number of wells. N was the average number of cells per well (N = 40,000 in this study). The data were statistically analyzed by Omori’s method, a modified Dunnett’s procedure for identifying clear negatives, a Simpson–Margolin procedure for detecting downturn data, and a trend test to evaluate the dose dependency [42, 43]. The acceptability criterion for the test was that the MF value of the positive control group of each laboratory was increased with statistical significance compared with that of the concurrent negative control group.

[4] = system: TK6 cells; assay: Cytotoxicity in the TK6 assay (CE, RS, RSG, RTG); settings: for RS: graph sheet, TK6, 24 h
[5] = system: human lymphoblastoid TK6 cells, thymidine kinase gene
Description: as §1, §2, §3, §4

[6] = system: TA1538, TA100, TA98, TA97, TA1535; settings: ref [18]-[40], Table 2, cited from earlier work
[7] = TK6, 24 h treatment, -S9 mix, dose 60.00 μg/mL
[8] = TK6, 24 h treatment, -S9 mix, dose 90.00 μg/mL
[9] = TK6, 24 h treatment, -S9 mix, dose 200.0 μg/mL
[10] = TK6, 24 h treatment, -S9 mix, dose 220.0 μg/mL
[11] = short treatment, +S9 mix, dose 62.5 μg/mL
[12] = short treatment, +S9 mix, dose 250 μg/mL
[13] = short treatment, +S9 mix, dose 500 μg/mL
[14] = short treatment, +S9 mix, dose 1000 μg/mL
[15] = short treatment, +S9 mix, dose 2000 μg/mL
[16] = short treatment, -S9 mix, dose 62.50 μg/mL
[17] = short treatment, -S9 mix, dose 500.0 μg/mL
[18] = short treatment, -S9 mix, dose 1000.0 μg/mL
[19] = short treatment, -S9 mix, dose 2000.0 μg/mL
[20] = short treatment, +S9 mix, Day 0, dose 62.5 μg/mL
[21] = short treatment, +S9 mix, Day 0, dose 250 μg/mL
[22] = short treatment, +S9 mix, Day 0, dose 500 μg/mL
[23] = short treatment, +S9 mix, Day 0, dose 1000 μg/mL
[24] = short treatment, +S9 mix, Day 0, dose 2000 μg/mL
[25] = short treatment, -S9 mix, Day 0, dose 62.50 μg/mL
[26] = short treatment, -S9 mix, Day 0, dose 500.0 μg/mL
[27] = short treatment, -S9 mix, Day 0, dose 1000.0 μg/mL
[28] = short treatment, -S9 mix, Day 0, dose 2000.0 μg/mL

CNc1ccc(N(CCO)CCO)cc1[N+](=O)[O-] [HC blue No. 1, reference compound]
carcinogenicity classification ([1]; ref [84]): carcinogen | mutagenicity in MLA (+S9) ([2]; +S9, ref [68]): positive with weak response | MLA (−S9) ([2]; substance with high purity, −S9, ref [27], [85]): negative

O=[N+]([O-])c1cc(N(CCO)CCO)ccc1NCCO [HC blue no2]
%SG [3, 7]: 47.5% | Mut. freq. N-MF [3, 7]: 1.5 ×10-6 | Mut. freq. S-MF [3, 7]: 1.4 ×10-6 | Mut. freq. T-MF [3, 7]: 2.9 ×10-6 | %SG [3, 8]: 74.7% | Mut. freq. N-MF [3, 8]: 0.528 ×10-6 | Mut. freq. S-MF [3, 8]: 1.6 ×10-6 | Mut. freq. T-MF [3, 8]: 2.1 ×10-6 | %SG [3, 9]: 48.2% | Mut. freq. N-MF [3, 9]: 3.7 ×10-6 | Mut. freq. S-MF [3, 9]: 3.4 ×10-6 | Mut. freq. T-MF [3, 9]: 7.1 ×10-6 | %SG [3, 10]: 52.5% | Mut. freq. N-MF [3, 10]: 5.1 ×10-6 | Mut. freq. S-MF [3, 10]: 5.7 ×10-6 | Mut. freq. T-MF [3, 10]: 10.8 ×10-6 | MF ([3]; graph sheet, TK6, 24 h, -S9 mix, dose 60.00 μg/mL): 2.9 | MF ([3]; graph sheet, TK6, 24 h, -S9 mix, dose 90.00 μg/mL): 2.1 | MF ([3]; graph sheet, TK6, 24 h, -S9 mix, dose 200.0 μg/mL): 7.1 | MF ([3]; graph sheet, TK6, 24 h, -S9 mix, dose 220.0 μg/mL): 10.8 | %SG [3, 11]: 50.7% | Mut. freq. N-MF [3, 11]: 0.7 ×10-6 | Mut. freq. S-MF [3, 11]: 0.7 ×10-6 | Mut. freq. T-MF [3, 11]: 1.5 ×10-6 | %SG [3, 12]: 22.9% | Mut. freq. N-MF [3, 12]: 2.4 ×10-6 | Mut. freq. S-MF [3, 12]: 0.7 ×10-6 | Mut. freq. T-MF [3, 12]: 3.0 ×10-6 | %SG [3, 13]: 42.4% | Mut. freq. N-MF [3, 13]: 1.9 ×10-6 | Mut. freq. S-MF [3, 13]: 1.4 ×10-6 | Mut. freq. T-MF [3, 13]: 3.3 ×10-6 | %SG [3, 14]: 28.4% | Mut. freq. N-MF [3, 14]: 2.8 ×10-6 | Mut. freq. S-MF [3, 14]: 1.1 ×10-6 | Mut. freq. T-MF [3, 14]: 3.9 ×10-6 | %SG [3, 15]: 48.7% | Mut. freq. N-MF [3, 15]: 1.3 ×10-6 | Mut. freq. S-MF [3, 15]: 1.2 ×10-6 | Mut. freq. T-MF [3, 15]: 2.5 ×10-6 | %SG [3, 16]: 23.1% | Mut. freq. N-MF [3, 16]: 1.5 ×10-6 | Mut. freq. S-MF [3, 16]: 0.455 ×10-6 | Mut. freq. T-MF [3, 16]: 2.0 ×10-6 | %SG [3, 17]: 55.5% | Mut. freq. N-MF [3, 17]: 1.8 ×10-6 | Mut. freq. S-MF [3, 17]: 2.3 ×10-6 | Mut. freq. T-MF [3, 17]: 4.1 ×10-6 | %SG [3, 18]: 26.3% | Mut. freq. N-MF [3, 18]: 2.3 ×10-6 | Mut. freq. S-MF [3, 18]: 0.8 ×10-6 | Mut. freq. T-MF [3, 18]: 3.1 ×10-6 | %SG [3, 19]: 51.7% | Mut. freq. N-MF [3, 19]: 1.8 ×10-6 | Mut. freq. S-MF [3, 19]: 1.9 ×10-6 | Mut. freq. T-MF [3, 19]: 3.7 ×10-6 | Adjusted CE0 [4, 7]: 341.6% | CE0 (cell viability on Day 0) [4, 7]: 112.0% | CE3 (cell viability on Day 3) [4, 7]: 116.0% | RS0 [4, 7]: 128.6% | RSG [4, 7]: 0.865 | Adjusted CE0 [4, 8]: 259.2% | CE0 (cell viability on Day 0) [4, 8]: 81.6% | CE3 (cell viability on Day 3) [4, 8]: 125.0% | RS0 [4, 8]: 97.6% | RSG [4, 8]: 0.765 | Adjusted CE0 [4, 9]: 96.6% | CE0 (cell viability on Day 0) [4, 9]: 50.2% | CE3 (cell viability on Day 3) [4, 9]: 112.0% | RS0 [4, 9]: 36.4% | RSG [4, 9]: 0.241 | Adjusted CE0 [4, 10]: 48.2% | CE0 (cell viability on Day 0) [4, 10]: 28.3% | CE3 (cell viability on Day 3) [4, 10]: 101.2% | RS0 [4, 10]: 18.1% | RSG [4, 10]: 0.106 | CE3 ([4]; as fraction, mutation frequency table, TK6, 24 h treatment, -S9 mix, dose 60.00 μg/mL): 1.160 | CE3 ([4]; as fraction, mutation frequency table, TK6, 24 h treatment, -S9 mix, dose 90.00 μg/mL): 1.250 | CE3 ([4]; as fraction, mutation frequency table, TK6, 24 h treatment, -S9 mix, dose 200.0 μg/mL): 1.120 | CE3 ([4]; as fraction, mutation frequency table, TK6, 24 h treatment, -S9 mix, dose 220.0 μg/mL): 1.012 | RS ([4]; -S9 mix, dose 60.00 μg/mL): 128.6 | RS ([4]; -S9 mix, dose 90.00 μg/mL): 97.6 | RS ([4]; -S9 mix, dose 200.0 μg/mL): 36.4 | RS ([4]; -S9 mix, dose 220.0 μg/mL): 18.1 | Adjusted CE0 [4, 20]: 91.4% | CE0 [4, 20]: 81.6% | RS0 [4, 20]: 96.7% | Adjusted CE0 [4, 21]: 89.0% | CE0 [4, 21]: 74.8% | RS0 [4, 21]: 94.2% | Adjusted CE0 [4, 22]: 80.9% | CE0 [4, 22]: 79.3% | RS0 [4, 22]: 85.5% | Adjusted CE0 [4, 23]: 69.1% | CE0 [4, 23]: 59.6% | RS0 [4, 23]: 73.1% | Adjusted CE0 [4, 24]: 58.5% | CE0 [4, 24]: 54.7% | RS0 [4, 24]: 61.9% | CE3 ([4]; short treatment, +S9 mix, Day 3, dose 62.5 μg/mL): 92.1% | CE3 ([4]; short treatment, +S9 mix, Day 3, dose 250 μg/mL): 104.6% | CE3 ([4]; short treatment, +S9 mix, Day 3, dose 500 μg/mL): 92.1% | CE3 ([4]; short treatment, +S9 mix, Day 3, dose 1000 μg/mL): 108.2% | CE3 ([4]; short treatment, +S9 mix, Day 3, dose 2000 μg/mL): 104.6% | CE3 ([4]; short treatment, +S9 mix, as fraction, dose 62.5 μg/mL): 0.921 | CE3 ([4]; short treatment, +S9 mix, as fraction, dose 250 μg/mL): 1.046 | CE3 ([4]; short treatment, +S9 mix, as fraction, dose 500 μg/mL): 0.921 | CE3 ([4]; short treatment, +S9 mix, as fraction, dose 1000 μg/mL): 1.082 | CE3 ([4]; short treatment, +S9 mix, as fraction, dose 2000 μg/mL): 1.046 | RSG [4, 11]: 1.016 | RSG [4, 12]: 1.004 | RSG [4, 13]: 1.149 | RSG [4, 14]: 0.770 | RSG [4, 15]: 0.963 | Adjusted CE0 [4, 25]: 82.4% | CE0 [4, 25]: 77.0% | RS0 [4, 25]: 94.7% | Adjusted CE0 [4, 26]: 97.6% | CE0 [4, 26]: 92.1% | RS0 [4, 26]: 112.2% | Adjusted CE0 [4, 27]: 99.4% | CE0 [4, 27]: 92.1% | RS0 [4, 27]: 114.3% | Adjusted CE0 [4, 28]: 93.9% | CE0 [4, 28]: 92.1% | RS0 [4, 28]: 107.9% | CE3 ([4]; short treatment, -S9 mix, Day 3, dose 62.50 μg/mL): 125.0% | CE3 ([4]; short treatment, -S9 mix, Day 3, dose 500.0 μg/mL): 95.0% | CE3 ([4]; short treatment, -S9 mix, Day 3, dose 1000.0 μg/mL): 108.2% | CE3 ([4]; short treatment, -S9 mix, Day 3, dose 2000.0 μg/mL): 89.3% | CE3 ([4]; short treatment, -S9 mix, as fraction, dose 62.50 μg/mL): 1.250 | CE3 ([4]; short treatment, -S9 mix, as fraction, dose 500.0 μg/mL): 0.950 | CE3 ([4]; short treatment, -S9 mix, as fraction, dose 1000.0 μg/mL): 1.082 | CE3 ([4]; short treatment, -S9 mix, as fraction, dose 2000.0 μg/mL): 0.893 | RSG [4, 16]: 0.906 | RSG [4, 17]: 1.168 | RSG [4, 18]: 0.743 | RSG [4, 19]: 0.681

IC(I)I [Iodoform]
MF at high-dose levels [5]: dose-dependent increase in MF | TK6 assay overall judgment [5]: negative | TK6 assay result (mutant frequency increase, judgment) [5]: Negative | TK mutation assay, Long term [5]: Neg | TK mutation assay, With S9 [5]: Neg | TK mutation assay, Without S9 [5]: Neg | Carcinogenicity Studies ([1]; rodent, ref [20]-[41], Table 2): Neg | Bacterial reverse mutation assay, With S9 ([6]; with S9): Pos | Bacterial reverse mutation assay, Without S9 ([6]; without S9): Pos | MF ([3]; 6.25 μg/mL, -S9 mix, graph sheet Short-S9): 2.7 | %SG ([3]; 6.25 μg/mL, short treatment, -S9 mix): 88.0% | MF ([3]; 50.0 μg/mL, -S9 mix, graph sheet Short-S9): 3.0 | %SG ([3]; 50.0 μg/mL, short treatment, -S9 mix): 48.2% | MF ([3]; 100.0 μg/mL, -S9 mix, graph sheet Short-S9): 4.5 | %SG ([3]; 100.0 μg/mL, short treatment, -S9 mix): 69.7% | MF ([3]; 200.0 μg/mL, -S9 mix, graph sheet Short-S9): 3.2 | %SG ([3]; 200.0 μg/mL, short treatment, -S9 mix): 80.4% | %SG ([3]; 24 h treatment -S9 mix, dose 10.00 μg/mL): 71.6% | %SG ([3]; 24 h treatment -S9 mix, dose 20.00 μg/mL): 71.8% | %SG ([3]; 24 h treatment -S9 mix, dose 30.00 μg/mL): 87.1% | %SG ([3]; 24 h treatment -S9 mix, dose 40.0 μg/mL): 100.0% | %SG ([3]; 24 h treatment -S9 mix, dose 50.0 μg/mL): 100.0% | %SG ([3]; 24 h treatment -S9 mix, dose 60.0 μg/mL): 79.6% | %SG ([3]; 24 h treatment -S9 mix, dose 70.0 μg/mL): 85.6% | %SG ([3]; Short treatment +S9 mix, dose 25 μg/mL): 65.1% | %SG ([3]; Short treatment +S9 mix, dose 50 μg/mL): 57.3% | %SG ([3]; Short treatment +S9 mix, dose 100 μg/mL): 65.1% | %SG ([3]; Short treatment +S9 mix, dose 200 μg/mL): 61.0%
